Among the data in US10851367B2, “Tissue-specific genome engineering using CRISPR-Cas9” (Pfizer Inc., priority 2015, dated 2020) are Kd values, retold here.

pKd: −log10 of the molar value.

The target of this experiment is T1, ASGPR (Homo sapiens, UniProt P07306).
T1 sequence (P07306 148-291 limits assumed): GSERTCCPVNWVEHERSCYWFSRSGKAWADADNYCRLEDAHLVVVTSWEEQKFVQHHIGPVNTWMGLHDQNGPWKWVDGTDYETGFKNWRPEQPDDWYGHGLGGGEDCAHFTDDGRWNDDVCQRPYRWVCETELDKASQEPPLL
The experiment can be described thus: SPR binding measurements for ASGPr ligands (Biacore 3000). The following applies: biotinylated ASGPR immobilized, 25° C., each run separately reported or n and std dev noted. As for the experimental part: SPR Binding Measurements for ASGPr Ligands:
All SPR measurements with compounds were performed using a Biacore 3000 (GE Healthcare) at 25° C. Biotinylated ASGPR was immobilized typically at 2000-3000 resonance units (Ru) using either SA sensor chips (GE Healthcare) or custom sensor chips with Neutravidin (Pierce Biochemical) immobilized by standard amine coupling to CM5 sensor chips (GE Healthcare). The running buffer was HBS (10 mM HEPES, 150 mM NaCl), 20 mM CaCl2, 0.01% p20, 3% DMSO or 50 mM tris, 150 mM NaCl, 50 mM CaCl2, 0.01% p20, 3% DMSO pH 7.5. Compounds were diluted into running buffer at a concentration of 900 uM and serially diluted 3 fold to 3.7 uM. Compound solutions were injected at 50 ul/min for 1 min followed by a 1 min dissociation in duplicate for each concentration. For the multimeric conjugates (dimers, trimers), the conjugates were diluted in running buffer to concentrations of 100 nM or 10 nM and serially diluted. Conjugates were injected for 2 min and off rates were detected for 300 or 600 sec. After completion of off phase data the compounds were displaced using an injection of 900 uM GalNAc returning the receptor surface to the free state. […] KDs were determined by fitting the steady state binding responses for the compounds and single conjugated molecules in Scrubber2. […]

`CN(C(=O)OC(C)(C)C)[C@H]1[C@H]2OC[C@](CO)(O2)[C@H](O)[C@@H]1O` [Compound 31, tert-butyl [(1S,2R,3R,4R,5S)-2,3-dihydroxy-1-(hydroxymethyl)-6,8-dioxabicyclo[3.2.1]oct-4-yl]methylcarbamate] had a pKd of 4.91.
